Data taken from ChEMBL document CHEMBL1201862, “PubChem BioAssay data set” (2004).
The source made the active and inactive calls.

Legend:
[1] = target: T1, Sentrin-specific protease 8 (Homo sapiens, UniProt Q96LD8); assay type: functional
T1 sequence (Q96LD8 whole entry): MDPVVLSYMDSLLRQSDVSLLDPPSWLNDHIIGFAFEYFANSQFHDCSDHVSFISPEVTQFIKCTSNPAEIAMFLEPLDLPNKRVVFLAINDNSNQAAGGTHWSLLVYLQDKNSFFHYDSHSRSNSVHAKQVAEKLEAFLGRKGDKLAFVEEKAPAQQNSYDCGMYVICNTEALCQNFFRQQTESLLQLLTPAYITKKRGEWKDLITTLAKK

[2] = target: T1, Sentrin-specific protease 8; assay type: functional; remark: listed apart in the source
[3] = Counterscreen for inhibitors of Trypanosoma brucei methionyl tRNA synthetase (MetRS): Luminescence-based cell-based high throughput dose response assay to identify compounds that are cytotoxic to Jurkat human T lymphocyte cells.; assay type: functional
[4] = target: T2, Methionyl-tRNA synthetase, putative (Trypanosoma brucei brucei, UniProt Q38C91); assay type: functional, Trypanosoma brucei brucei strain 927/4 GUTat10.1
T2 sequence (Q38C91 whole entry): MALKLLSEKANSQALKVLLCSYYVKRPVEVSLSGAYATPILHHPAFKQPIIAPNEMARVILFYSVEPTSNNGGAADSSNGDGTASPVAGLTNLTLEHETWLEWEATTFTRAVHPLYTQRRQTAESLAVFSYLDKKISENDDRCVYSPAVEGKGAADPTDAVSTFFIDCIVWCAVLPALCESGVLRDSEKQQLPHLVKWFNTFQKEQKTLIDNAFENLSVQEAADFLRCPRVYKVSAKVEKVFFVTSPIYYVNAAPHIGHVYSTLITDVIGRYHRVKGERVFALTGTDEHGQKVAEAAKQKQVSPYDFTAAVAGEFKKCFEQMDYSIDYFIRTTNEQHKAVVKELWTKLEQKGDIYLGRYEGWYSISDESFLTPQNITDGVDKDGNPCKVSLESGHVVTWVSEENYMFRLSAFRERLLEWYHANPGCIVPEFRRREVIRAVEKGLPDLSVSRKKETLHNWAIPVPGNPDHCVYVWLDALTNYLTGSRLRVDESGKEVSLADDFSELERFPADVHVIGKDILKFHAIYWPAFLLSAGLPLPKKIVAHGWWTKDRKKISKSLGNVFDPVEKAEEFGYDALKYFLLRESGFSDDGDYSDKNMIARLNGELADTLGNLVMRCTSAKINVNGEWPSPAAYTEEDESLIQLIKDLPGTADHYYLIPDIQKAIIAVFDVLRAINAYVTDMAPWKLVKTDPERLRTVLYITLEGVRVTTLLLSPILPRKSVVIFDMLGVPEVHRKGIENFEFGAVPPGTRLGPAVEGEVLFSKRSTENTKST

[5] = target: Induced myeloid leukemia cell differentiation protein Mcl-1 (Homo sapiens, UniProt Q07820); assay type: functional
Chain of Induced myeloid leukemia cell differentiation protein Mcl-1 (Q07820 whole entry): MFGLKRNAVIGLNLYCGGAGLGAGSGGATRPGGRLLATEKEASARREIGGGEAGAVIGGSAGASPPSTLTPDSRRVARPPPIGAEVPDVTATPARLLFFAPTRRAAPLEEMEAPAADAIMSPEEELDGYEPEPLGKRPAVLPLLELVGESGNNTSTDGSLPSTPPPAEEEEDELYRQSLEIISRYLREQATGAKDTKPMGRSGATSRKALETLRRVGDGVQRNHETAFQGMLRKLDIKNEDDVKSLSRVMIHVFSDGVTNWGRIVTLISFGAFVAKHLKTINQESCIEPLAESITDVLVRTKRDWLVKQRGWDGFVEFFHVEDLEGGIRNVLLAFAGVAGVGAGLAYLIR

[6] = viability loss in HeLa cells – cytotoxicity control for MgcRacGAP inhibitor project, dose response (AID 624300); assay type: functional
[7] = target: T3, Rac GTPase-activating protein 1 (Homo sapiens, UniProt Q9H0H5); assay: blockers of MgcRacGAP-driven Rac1 GTP hydrolysis – biochemical, ADP Hunter fluorescence, primary and confirmatory, confirmation (AID 624330); assay type: functional
T3 sequence (Q9H0H5 whole entry): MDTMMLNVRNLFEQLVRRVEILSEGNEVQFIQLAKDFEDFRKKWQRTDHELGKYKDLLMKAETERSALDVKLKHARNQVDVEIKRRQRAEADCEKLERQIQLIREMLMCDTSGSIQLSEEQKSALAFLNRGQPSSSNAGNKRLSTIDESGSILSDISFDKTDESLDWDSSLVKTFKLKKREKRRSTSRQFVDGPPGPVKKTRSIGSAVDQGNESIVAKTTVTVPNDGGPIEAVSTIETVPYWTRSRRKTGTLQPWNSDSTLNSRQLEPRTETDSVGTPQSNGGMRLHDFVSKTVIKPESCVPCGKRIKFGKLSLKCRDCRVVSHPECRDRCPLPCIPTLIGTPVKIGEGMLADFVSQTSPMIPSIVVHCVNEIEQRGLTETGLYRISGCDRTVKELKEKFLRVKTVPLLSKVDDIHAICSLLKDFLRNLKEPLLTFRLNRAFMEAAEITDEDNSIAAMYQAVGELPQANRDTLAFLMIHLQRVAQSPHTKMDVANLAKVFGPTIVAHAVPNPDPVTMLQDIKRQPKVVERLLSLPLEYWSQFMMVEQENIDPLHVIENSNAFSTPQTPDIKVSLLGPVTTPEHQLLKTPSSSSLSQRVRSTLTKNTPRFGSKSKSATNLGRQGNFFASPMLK

[8] = target: FAD-linked sulfhydryl oxidase ALR (Homo sapiens, UniProt P55789); assay: ALR-catalysed DTT oxidation blockers – biochemical, H2O2 detection, luminescence, cherry-pick, dose response (AID 493248)
Chain of FAD-linked sulfhydryl oxidase ALR (P55789 whole entry): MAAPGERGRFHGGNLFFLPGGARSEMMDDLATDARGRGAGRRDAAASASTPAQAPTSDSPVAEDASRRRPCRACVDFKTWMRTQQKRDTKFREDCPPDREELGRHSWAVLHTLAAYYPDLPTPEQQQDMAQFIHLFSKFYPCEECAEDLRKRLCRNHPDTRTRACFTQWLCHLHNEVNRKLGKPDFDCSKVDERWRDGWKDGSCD

[9] = target: T4, Replicative DNA helicase DnaB (Mycobacterium tuberculosis, UniProt P9WMR3); assay: DnaB intein splicing inhibitors, dose response, biochemical, cell-free fluorescence (AID 449749); assay type: functional
T4 sequence (P9WMR3 whole entry): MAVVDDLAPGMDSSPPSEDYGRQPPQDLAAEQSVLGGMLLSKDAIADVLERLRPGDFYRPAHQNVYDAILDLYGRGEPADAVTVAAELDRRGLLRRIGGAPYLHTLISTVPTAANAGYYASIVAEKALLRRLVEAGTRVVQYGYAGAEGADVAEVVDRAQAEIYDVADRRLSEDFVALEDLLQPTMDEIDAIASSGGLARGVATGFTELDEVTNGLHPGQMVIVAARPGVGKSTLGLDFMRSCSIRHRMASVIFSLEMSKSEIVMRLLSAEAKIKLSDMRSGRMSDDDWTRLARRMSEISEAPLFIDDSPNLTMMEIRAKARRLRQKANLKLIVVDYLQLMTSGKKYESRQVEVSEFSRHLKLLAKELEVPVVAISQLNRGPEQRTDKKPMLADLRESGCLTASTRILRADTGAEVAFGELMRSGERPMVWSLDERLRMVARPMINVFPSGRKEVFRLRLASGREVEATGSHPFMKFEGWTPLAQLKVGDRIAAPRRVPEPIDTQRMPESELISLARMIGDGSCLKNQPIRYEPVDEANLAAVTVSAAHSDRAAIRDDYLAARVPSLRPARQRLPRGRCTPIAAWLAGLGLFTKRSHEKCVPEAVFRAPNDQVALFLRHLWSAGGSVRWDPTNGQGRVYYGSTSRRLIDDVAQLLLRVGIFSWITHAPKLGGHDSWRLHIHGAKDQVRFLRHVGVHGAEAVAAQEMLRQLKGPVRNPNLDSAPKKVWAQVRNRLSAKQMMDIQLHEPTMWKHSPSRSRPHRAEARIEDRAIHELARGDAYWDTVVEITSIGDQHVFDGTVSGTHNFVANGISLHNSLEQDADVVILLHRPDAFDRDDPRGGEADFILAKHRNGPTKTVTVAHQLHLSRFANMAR

Protein RecA = target: T5, Protein RecA (Mycobacterium tuberculosis, UniProt P9WHJ3); assay: Fluorescence Cell-Free Homogeneous Dose Retest to Identify Inhibitors of RecA-Intein Splicing Activity. [Related pubchem assays (depositor defined):AID2097, AID2223, AID489010, AID492950]; assay type: functional
T5 sequence (P9WHJ3 whole entry): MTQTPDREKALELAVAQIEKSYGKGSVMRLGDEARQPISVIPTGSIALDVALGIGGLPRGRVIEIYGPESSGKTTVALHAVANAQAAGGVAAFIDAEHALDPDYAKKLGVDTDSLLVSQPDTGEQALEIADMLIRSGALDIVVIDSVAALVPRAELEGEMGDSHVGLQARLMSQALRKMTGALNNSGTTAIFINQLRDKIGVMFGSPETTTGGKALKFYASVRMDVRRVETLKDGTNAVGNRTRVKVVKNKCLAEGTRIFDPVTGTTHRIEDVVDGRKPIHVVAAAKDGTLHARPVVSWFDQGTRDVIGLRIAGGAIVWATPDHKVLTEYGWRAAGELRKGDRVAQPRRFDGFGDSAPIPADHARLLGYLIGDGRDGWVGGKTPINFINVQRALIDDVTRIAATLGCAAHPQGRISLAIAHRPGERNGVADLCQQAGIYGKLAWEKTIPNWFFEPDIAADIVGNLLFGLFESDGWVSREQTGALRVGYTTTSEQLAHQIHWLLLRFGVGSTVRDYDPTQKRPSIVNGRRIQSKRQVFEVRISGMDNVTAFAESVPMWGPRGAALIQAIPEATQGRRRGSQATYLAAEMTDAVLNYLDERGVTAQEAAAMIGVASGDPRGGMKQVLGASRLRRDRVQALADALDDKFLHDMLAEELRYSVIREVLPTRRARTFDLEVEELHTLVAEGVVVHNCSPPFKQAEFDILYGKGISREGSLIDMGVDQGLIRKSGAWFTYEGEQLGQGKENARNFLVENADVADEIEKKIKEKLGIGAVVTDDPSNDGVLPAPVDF

[10] = reduction of Shn3 3'UTR-driven luciferase in osteoblasts – cell-based, Clone20 osteoblasts, firefly luciferase, cherry-picked, dose response (AID 624132); assay type: functional;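 note: firefly luciferase luminescence from reporter carrying the Shn3 3'UTR in osteoblasts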
[11] = loss of viability in HepG2 cells – cell-based, CellTiter-Glo, cherry-picked, cytotoxicity control for Shn3 inhibitor project, dose response (AID 624134); assay type: functional
[12] = non-specific 3'UTR reporter inhibition in Clone20-Shn3RL – cell-based, Renilla luciferase, cherry-picked, counter-screen for Shn3 inhibitor project, dose response (AID 624133); assay type: functional
[13] = Fluorescence-based cell-based high throughput dose response assay for inhibitors of the interaction of nucleotide-binding oligomerization domain containing 2 (NOD2) and the receptor-interacting serine-threonine kinase 2 (RIPK2).; assay type: functional; details: Homo sapiens
Beta Lactamase = Beta Lactamase (Pseudomonas aeruginosa, UniProt Q932Y6); assay: BLA reporter interference, concentration series – BLA reporter cells, FRET fluorescence, artefact control for NOD2-RIPK2 interaction inhibitor project, dose response (AID 651552); assay type: functional, cell-based
Chain of Beta Lactamase (Q932Y6 whole entry): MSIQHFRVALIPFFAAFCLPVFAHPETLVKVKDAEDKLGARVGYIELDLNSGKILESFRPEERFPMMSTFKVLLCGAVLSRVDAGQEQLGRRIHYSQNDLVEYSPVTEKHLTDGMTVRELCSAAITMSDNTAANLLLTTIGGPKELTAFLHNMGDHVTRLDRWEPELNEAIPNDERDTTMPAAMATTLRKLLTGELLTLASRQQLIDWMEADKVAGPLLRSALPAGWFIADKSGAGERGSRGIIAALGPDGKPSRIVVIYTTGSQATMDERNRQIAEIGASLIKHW

[14] = reduced cellular PGC1a acetyl-lysine signal – cell-based, cherry-picked samples, dose response (AID 720514); assay type: functional;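 note: potency may reflect raised or lowered acetylation signal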
[15] = target: T6, RNA-binding protein pos-1 (Caenorhabditis elegans, UniProt G5EF15); assay: disruptors of C. elegans POS-1 RNA interaction – biochemical, fluorescence polarization, dose response (AID 1964);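 note: purified POS-1 fused to maltose binding protein made in E. coli; potency of compounds blocking POS-1 binding to fluorescent RNA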
T6 sequence (G5EF15 whole entry): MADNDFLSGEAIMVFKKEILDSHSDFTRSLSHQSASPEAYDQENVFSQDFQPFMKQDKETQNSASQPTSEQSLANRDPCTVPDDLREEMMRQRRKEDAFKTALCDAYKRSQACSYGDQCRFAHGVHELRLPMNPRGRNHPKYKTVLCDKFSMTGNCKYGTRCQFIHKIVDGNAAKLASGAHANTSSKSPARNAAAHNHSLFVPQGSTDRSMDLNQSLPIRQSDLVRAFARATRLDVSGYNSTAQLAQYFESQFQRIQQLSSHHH

[16] = target: T7, Zinc finger protein mex-5 (Caenorhabditis elegans, UniProt Q9XUB2); assay: potency of MEX-5 RNA-binding blockers – biochemical, C. elegans, fluorescence polarization, dose response (AID 1960)
T7 sequence (Q9XUB2 whole entry): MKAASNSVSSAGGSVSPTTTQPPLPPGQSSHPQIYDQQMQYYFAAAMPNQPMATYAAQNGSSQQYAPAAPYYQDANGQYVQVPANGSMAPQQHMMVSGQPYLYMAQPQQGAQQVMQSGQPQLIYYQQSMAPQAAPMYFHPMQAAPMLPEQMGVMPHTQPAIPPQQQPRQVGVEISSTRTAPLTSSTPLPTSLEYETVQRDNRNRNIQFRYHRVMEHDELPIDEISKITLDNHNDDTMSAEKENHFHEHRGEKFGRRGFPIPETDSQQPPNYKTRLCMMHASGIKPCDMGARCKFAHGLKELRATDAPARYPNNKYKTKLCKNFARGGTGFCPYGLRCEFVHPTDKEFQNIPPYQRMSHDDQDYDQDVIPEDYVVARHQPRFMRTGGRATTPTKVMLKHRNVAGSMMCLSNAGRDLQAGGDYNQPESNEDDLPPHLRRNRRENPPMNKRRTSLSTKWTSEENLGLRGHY

[17] = Luminescence Cell-Based Dose Retest to Confirm Inhibitors of Cancer Stem Cells. [Related pubchem assays (depositor defined):AID2717, AID2721]; assay type: functional; details: Homo sapiens

CSc1nnc(C)c(/C=C/NOCc2cccc(F)c2)n1
IC50 [1]: 69.9 µM (inactive)
IC50 [2]: 14 µM (active)

Clc1ccccc1-c1ccc2ncnc(NCc3ccc4c(c3)OCO4)c2c1
IC50 [3]: 83.3 µM (inactive)
IC50 [4]: 30 µM (inactive)

CCOC(=O)CSc1nc(N)c(C(=O)Nc2ccc(N(C)C)cc2)s1
IC50 [5]: < 400 nM (active)
CC50 [6]: 100 µM (active)
IC50 [7]: 31.7 µM (active)

O=C(NCc1ccc2c(c1)OCO2)c1nc(S(=O)(=O)Cc2ccccc2)ncc1Cl
AC50 [8]: 505 nM (active)
AC50 [9]: 2.27 µM (active)
EC50 (Protein RecA): 4.16 µM (active)
AC50 [10]: 6.4 µM (active)
AC50 [11]: 40.5 µM (active)
AC50 [12]: 21.7 µM (active)
IC50 [13]: 4.89 µM (active)
IC50 (Beta Lactamase): 32.5 µM (inactive)
AC50 [14]: 21.7 µM (active)

COc1ccc(-c2[nH][nH]c(=O)c2NC(=O)c2ccc([N+](=O)[O-])cc2)cc1
IC50 [1]: 47.2 µM (active)
IC50 [2]: 65.5 µM (inactive)

CCNC(=O)O/N=C1\CCCCC1c1ccc([N+](=O)[O-])cc1[N+](=O)[O-] (configuration not stated)
IC50 [1]: 14.4 µM (active)
IC50 [2]: 27.2 µM (active)

Cc1cc(-c2ccccc2)nc(N/N=C/c2ccc(O)cc2O)n1
EC50 [15]: > 300 µM (not active)
EC50 [16]: 54 µM (active)
AC50 [17]: 6.35 µM (active)
CC50 [6]: 100 µM (active)
IC50 [7]: 69.1 µM (active)

COc1cc(/C=N/NC(=S)Nc2cccc(S(=O)(=O)N(C)C)c2)ccc1O
CC50 [6]: 100 µM (active)
IC50 [7]: 29 µM (active)
